Experiments:
[1] = tested on: Balb/c mice bearing subcutaneous CT26 tumors; assay: cancer cachexia model of Balb/c mice bearing subcutaneous CT26 tumors; assay type: in vivo; settings: for TNF-α level / creatine kinase level / serum LDL level / serum VLDL level / serum triglyceride level / % tumor grow inhibition (TGI): vs vehicle control; for % tumor grow inhibition (TGI): day 20; for IL-6 level / kidney weight / lung weight / spleen weight / serum levels of TNF-α: test groups vs vehicle control; for IL-6 level: FIG. 10B; for kidney weight / lung weight / spleen weight / serum levels of TNF-α: significance; for serum levels of TNF-α: FIG. 10A; for body weight: throughout the experimental period
Description: (§1) The anti-cachectic activity of iodide was evaluated in a cancer cachexia model of Balb/c mice bearing subcutaneous CT26 tumors. NaI was administered as FDY-5301, which is sodium iodide solubilized in water and balanced with sodium chloride to create an isotonic saline solution, with a pH between 7.0 and 9.5. As shown in the experimental design depicted in FIG. 1, when tumor volume reached 100 mm^3, the mice were either left untreated, or treated with one of the following: (i) vehicle control (0.5% CMC); (ii) NaI (FDY-5301) at 2 mg/kg i.v., QD×3 weeks; (iii) bucindolol at 2 mg/kg p.o., QD×3 weeks; or (iv) NaI (FDY-5301) at 40 ug/day slow release via Alzet osmotic pump (flow rate 0.11 uL/h) s.c. for 20 days. On day 14, 1 hour post dosing, blood samples were taken from three animals from groups 2, 3, and 5. On day 20, the animals were humanely euthanized and tumor and animal characteristics were measured. Prior to euthanasia, blood samples were collected for evaluation of biochemical parameters. Following euthanasia, tumor tissue and organs, muscles were collected and weighed.

[2] = tested on: Balb/c mice bearing subcutaneous CT26 tumors; assay: muscle histology and morphometry (muscle fiber area) in the CT26 cancer cachexia model; assay type: in vivo; settings: for muscle fiber area, gastrocnemius / muscle fiber area, soleus: histopathological images vs vehicle control; for muscle fiber area, tibialis anterior: vs vehicle control
Description: as §1
Morphometric evaluation of transverse sections of muscle fiber area (um2) was performed on tibialis anterior, gastrocnemius, and soleus muscles from the animals described in Example 1, for evaluation of anti-cachectic properties of FDY-5301 and bucindolol in the cancer cachexia model.

[3] = tested on: cardiotoxicity induced by doxorubicin; assay: cardiotoxicity induced by doxorubicin chemotherapy, ejection fraction via ultrasound; assay type: in vivo, C57Bl/6 mice
Description: Male C57Bl/6 mice (˜10 weeks old) were given a 15 mg/kg i.p. bolus of doxorubicin to induce cardiotoxicity. Assessment of ejection fraction was performed via ultrasound at baseline (day 0, prior to any doxorubicin administration) and on days 3, 7, 14 or 28 days post administration. Dosing of placebo or FDY-5301 was done in a blinded fashion, as was all ultrasound analysis.
A single 2 mg/kg i.v. bolus of FDY-5301 was administered by the retro orbital (r.o.) route and immediately followed by 15 mg/kg doxorubicin i.p. Placebo treated animals received saline. A Vevo® 2100 imaging system was used to assess cardiac function on days 0 (baseline), 7, 14, & 28.
A single 2 mg/kg i.v. bolus of NaI was administered by the retro orbital (r.o.) route followed immediately by the s.c. implantation of an osmotic pump designed to deliver 2 mg/kg/day of NaI. The mice then received a 15 mg/kg doxorubicin i.p. bolus. Placebo treated animals received saline (and an osmotic pump filled with saline). Cardiac function was assessed on days 0 (baseline), 3, 7 & 14.

[4] = slow release via Alzet osmotic pump

## CC(C)(Cc1c[nH]c2ccccc12)NCC(O)COc1ccccc1C#N (stereo not shown) [bucindolol, reference compound]
[1]; 2 mg/kg p.o.
  TNF-α level: marginally higher
  creatine kinase level: higher level
  serum LDL level: non-significant change
  serum VLDL level: significant decrease
[1]; bucindolol 2 mg/kg p.o.
  serum triglyceride level: significantly lower
[1]; 2 mg/kg p.o., QD×3 weeks
  % tumor grow inhibition (TGI): 24%
  body weight: progressive body weight gain
[1]
  IL-6 level: Non-significant
  kidney weight: Non-significant
  lung weight: Non-significant
  spleen weight: Non-significant
  serum levels of TNF-α: Non-Significant
[2]; 2 mg/kg p.o.
  muscle fiber area, gastrocnemius: increased muscle fiber area
  muscle fiber area, soleus: increased muscle fiber area

## [I-].[Na+] [FDY-5301, sodium iodide]
[1]; 2 mg/kg i.v.
  TNF-α level: non-significantly lower
  creatine kinase level: marginal decrease
  serum LDL level: non-significant change
  serum triglyceride level: marginally lower
[1]; 40 ug/day slow release via Alzet osmotic pump s.c.
  % tumor grow inhibition (TGI): 23%
[1]; 2 mg/kg i.v., QD×3 weeks
  % tumor grow inhibition (TGI): 31%
  body weight: progressive body weight gain
[1]; [4]
  TNF-α level: marginally higher
  serum LDL level: significant increase
  serum VLDL level: significant decrease
  serum triglyceride level: significantly lower
  body weight: progressive body weight gain
[1]; slow release
  creatine kinase level: marginal decrease
[1]
  IL-6 level: Non-significant
  kidney weight: Non-significant
  lung weight: Non-significant
  spleen weight: Non-significant
  serum levels of TNF-α: Non-Significant
[2]; 40 ug/day Alzet pump
  muscle fiber area, gastrocnemius: increased muscle fiber area
  muscle fiber area, soleus: increased muscle fiber area
[2]; 40 ug/day slow release via Alzet osmotic pump
  muscle fiber area, tibialis anterior: significant increase
[2]; 40 ug/day slow release via Alzet osmotic pump, listed as FDY-3501
  muscle fiber area, tibialis anterior: increased muscle fiber area
[2]; 2 mg/kg i.v.
  muscle fiber area, gastrocnemius: increased muscle fiber area
  muscle fiber area, soleus: increased muscle fiber area
  muscle fiber area, tibialis anterior: Non-significant
[2]; 2 mg/kg i.v., listed as FDY-3501
  muscle fiber area, tibialis anterior: increased muscle fiber area
[3]; 2 mg/kg i.v. bolus + s.c. osmotic pump 2 mg/kg/day, 15 mg/kg doxorubicin i.p., by day 14, vs placebo
  ejection fraction (EF): stabilized EF
[3]; combined results of bolus and bolus + continuous studies, delivered at the time of chemotherapy
  ejection fraction: prevents a significant reduction in ejection fraction
[3]; single 2 mg/kg i.v. bolus then 15 mg/kg doxorubicin i.p., days 7, 14, 28, vs placebo
  change in ejection fraction from baseline: less of a reduction in change in ejection fraction from baseline

— patent publication US20220387483A1, “USE OF IODIDE COMPOUNDS FOR THE TREATMENT AND PREVENTION OF CHEMOTHERAPY-ASSOCIATED CACHEXIA AND CARDIOTOXICITY” (FARADAY PHARMACEUTICALS, INC., priority 2019, published 2022)
